Test results published in US4812481A, “Synergistic combination of amantadiene and selegiline” (Degussa Aktiengesellschaft, priority 1986, dated 1989).

Key:
[1] = tested on: akinetic crisis; assay: improvement of the akinetic crisis (critical deteriorations of the Morbus Parkinson); type: in vivo, human; conditions: intravenous amantadine, without or with addition of selegiline
[2] = tested on: Parkinson's disease; assay: anti-Parkinsonism action in human (Webster scale, disability score); type: in vivo
Description: The effect of the anti-Parkinsonism action is established, for example, by Webster, D. D., Med. Treat. (N.Y.) 5, pp. 257-282, 1968. Here, the different symptoms are assigned and weighted after application of the monosubstance amantadine or the combination:
1. Slowed motor response of the hands
2. Rigor (elevation of the muscle tone)
4. Simultaneous swinging of the upper extremities
10. Ability to stand alone.
An anti-Parkinsonism action is present if the sum of the values resulting from the Webster scale (the so-called disability score) is lower than the initial value without medication (<30). The synergistic effect of the combination results from the following: When selegiline is used in addition, the sum of the disability score is lower than that which would have been achieved if only amantadine had been used and/or the duration of the effectiveness of amantadine is extended.

`NC12CC3CC(CC(C3)C1)C2` [amantadine, 1-amino-adamantane] was tested, and the “onset of improvement of the akinetic crisis” value [1] was “relatively slowly setting in improvement of the akinetic crisis”.
For `C#CCN(C)[C@H](C)Cc1ccccc1` [selegiline, N-(1-phenyl-2-propyl)-N-methyl-2-propinylamine], the anti-Parkinsonism action ([2]; Parkinson's disease, compared to pure amantadine) was “almost no anti-Parkinsonism action” and the “improvement of the symptoms of Parkinson (Webster sums)” value ([2]; early stages of Morbus Parkinsonism) was “does not show sufficient effect in regard to improving the symptoms of the Parkinson symptomatics”.
